SMILES strings stand for the structures.

In test [1] the test system is aptamer-Seq.10-Cy5 (csa-DEHP aptamer) (DNA, aptamer) TTCCGGGCATACGTATCGAATGTTGTGAGCCGTGGGCTGC
In words: 1H NMR. To be noted: complex formed in deionized water at 4 °C overnight, dialyzed; amino signals shift 1.9 to 2.3 ppm.

In test [2] the test system is DEHP aptamer-Seq.10 (FAM-labeled) (DNA, aptamer) TTCCGGGCATACGTATCGAATGTTGTGAGCCGTGGGCTGC
In words: graphene oxide fluorescence assay. To be noted: 37 °C, 1.5 h incubation; graphene oxide:ssDNA mass ratio 100:1; nonlinear regression.

The Kd is the concentration at which binding is half-saturated. Regarding `CCCCC(CC)COC(=O)c1ccccc1C(=O)OCC(CC)CCCC` (centres unmarked), the binding result in test [1] is reported as “yes”. In addition, the Kd in test [2] came out at 0.07 µM.
